Results taken from PubChem BioAssay (NCI).
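Method: 48-hour compound exposure of cells in 96-well plates, five concentrations, linear interpolation of endpoints. TGI: total growth inhibition.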

How the values were obtained:
Experiment in all cases: DTP human tumour cell line panel, 48 h
NCI-H522 lung = tested on: NCI-H522 lung
A549 NSCLC = tested on: A549 NSCLC
RPMI-8226 leukemia = tested on: RPMI-8226 leukemia
HOP-62 NSCLC = tested on: HOP-62 NSCLC
SK-MEL-5 melanoma = tested on: SK-MEL-5 melanoma
OVCAR-8 ovarian = tested on: OVCAR-8 ovarian
TK-10 renal = tested on: TK-10 renal
DMS 114 small cell lung = tested on: DMS 114 small cell lung
SK-OV-3 ovarian = tested on: SK-OV-3 ovarian
SF-539 CNS = tested on: SF-539 CNS
XF 498 CNS = tested on: XF 498 CNS
SN12C renal = tested on: SN12C renal
HT29 colon = tested on: HT29 colon
DMS 273 small cell lung = tested on: DMS 273 small cell lung
LOX IMVI melanoma = tested on: LOX IMVI melanoma
SW-620 colon = tested on: SW-620 colon
NCI-H460 lung = tested on: NCI-H460 lung
NCI-H226 lung = tested on: NCI-H226 lung
OVCAR-4 ovarian = tested on: OVCAR-4 ovarian
M14 melanoma = tested on: M14 melanoma
UACC-257 melanoma = tested on: UACC-257 melanoma
KM20L2 colon = tested on: KM20L2 colon
SNB-78 CNS = tested on: SNB-78 CNS
CCRF-CEM leukemia = tested on: CCRF-CEM leukemia
HL-60(TB) leukemia = tested on: HL-60(TB) leukemia
SF-268 CNS = tested on: SF-268 CNS
RXF 393 renal = tested on: RXF 393 renal
COLO 205 colon = tested on: COLO 205 colon
IGROV1 ovarian = tested on: IGROV1 ovarian
HCC-2998 colon = tested on: HCC-2998 colon
UACC-62 melanoma = tested on: UACC-62 melanoma
HCT-15 colon = tested on: HCT-15 colon
HOP-18 NSCLC = tested on: HOP-18 NSCLC
CAKI-1 renal = tested on: CAKI-1 renal
786-0 renal = tested on: 786-0 renal
OVCAR-5 ovarian = tested on: OVCAR-5 ovarian
MALME-3M melanoma = tested on: MALME-3M melanoma
HCT-116 colon = tested on: HCT-116 colon
RXF-631 renal = tested on: RXF-631 renal
M19-MEL melanoma = tested on: M19-MEL melanoma
LXFL 529 NSCLC = tested on: LXFL 529 NSCLC
UO-31 renal = tested on: UO-31 renal
SK-MEL-28 melanoma = tested on: SK-MEL-28 melanoma
SR leukemia = tested on: SR leukemia
SNB-19 CNS = tested on: SNB-19 CNS
KM12 colon = tested on: KM12 colon
SK-MEL-2 melanoma = tested on: SK-MEL-2 melanoma
MOLT-4 leukemia = tested on: MOLT-4 leukemia
A498 renal = tested on: A498 renal
HOP-92 NSCLC = tested on: HOP-92 NSCLC
SF-295 CNS = tested on: SF-295 CNS
DLD-1 colon = tested on: DLD-1 colon
EKVX NSCLC = tested on: EKVX NSCLC
ACHN renal = tested on: ACHN renal
K-562 leukemia = tested on: K-562 leukemia
SNB-75 CNS = tested on: SNB-75 CNS
NCI-H23 lung = tested on: NCI-H23 lung
U251 CNS = tested on: U251 CNS
OVCAR-3 ovarian = tested on: OVCAR-3 ovarian

Work on `CCOc1ccc(Nc2nc(C)c(C(=O)/C=C/c3ccc(Cl)cc3Cl)s2)cc1` yielded a TGI (NCI-H522 lung) of 43.2 µM, a TGI (A549 NSCLC) of 45.9 µM and a TGI (RPMI-8226 leukemia) of over 100 µM. The TGI (HOP-62 NSCLC) was 81.3 µM, the TGI (SK-MEL-5 melanoma) was 38.8 µM and the TGI (OVCAR-8 ovarian) was 40.7 µM. It also gave a TGI (TK-10 renal) of 52.6 µM, a TGI (DMS 114 small cell lung) of 56.5 µM and a TGI (SK-OV-3 ovarian) of 54.3 µM. It also gave a TGI (SF-539 CNS) of 78.8 µM, a TGI (XF 498 CNS) of 39.1 µM and a TGI (SN12C renal) of 37.1 µM. For the same compound, the TGI (HT29 colon) was 39.4 µM, the TGI (DMS 273 small cell lung) was 45 µM and the TGI (LOX IMVI melanoma) was 31.8 µM. For the same compound, the TGI (SW-620 colon) was 38.7 µM, the TGI (NCI-H460 lung) was 42.6 µM and the TGI (NCI-H226 lung) was 36.9 µM. It also gave a TGI (OVCAR-4 ovarian) of 28.7 µM, a TGI (M14 melanoma) of 50.1 µM and a TGI (UACC-257 melanoma) of 53.8 µM. The TGI (KM20L2 colon) was 52.2 µM, the TGI (SNB-78 CNS) was 67.9 µM and the TGI (CCRF-CEM leukemia) was 80.2 µM. The TGI (HL-60(TB) leukemia) was 65.6 µM, the TGI (SF-268 CNS) was 77.3 µM and the TGI (RXF 393 renal) was 40.6 µM. It also gave a TGI (COLO 205 colon) of 32.3 µM, a TGI (IGROV1 ovarian) of 85.1 µM and a TGI (HCC-2998 colon) of 43.9 µM. For the same compound, the TGI (UACC-62 melanoma) was 77.4 µM, the TGI (HCT-15 colon) was 48.6 µM and the TGI (HOP-18 NSCLC) was 66.7 µM. For the same compound, the TGI (CAKI-1 renal) was 55.4 µM, the TGI (786-0 renal) was 36.3 µM and the TGI (OVCAR-5 ovarian) was over 100 µM. For the same compound, the TGI (MALME-3M melanoma) was 62.7 µM, the TGI (HCT-116 colon) was 38.3 µM and the TGI (RXF-631 renal) was 54.8 µM. For the same compound, the TGI (M19-MEL melanoma) was 47.4 µM, the TGI (LXFL 529 NSCLC) was 37.5 µM and the TGI (UO-31 renal) was 51 µM. The TGI (SK-MEL-28 melanoma) was 51 µM, the TGI (SR leukemia) was 71.2 µM and the TGI (SNB-19 CNS) was over 100 µM. It also gave a TGI (KM12 colon) of 33.5 µM, a TGI (SK-MEL-2 melanoma) of 61.6 µM and a TGI (MOLT-4 leukemia) of 51.5 µM. It also gave a TGI (A498 renal) of 50.5 µM, a TGI (HOP-92 NSCLC) of 68.3 µM and a TGI (SF-295 CNS) of 38.5 µM. For the same compound, the TGI (DLD-1 colon) was 84.5 µM, the TGI (EKVX NSCLC) was 85.7 µM and the TGI (ACHN renal) was 71 µM. For the same compound, the TGI (K-562 leukemia) was 93.5 µM, the TGI (SNB-75 CNS) was 39.3 µM and the TGI (NCI-H23 lung) was 44.1 µM. For the same compound, the TGI (U251 CNS) was 37.9 µM and the TGI (OVCAR-3 ovarian) was 41 µM.
